The source of these data is the supplement of paper PMC10307832.

What all share (assay): relative viability (nuclei count vs DMSO), 5 days (fraction); higher = more cells survive
Compound in assay [1]: C1/C(=C\C2=CC=CS2)/C(=O)/C(=C/C3=CC=CS3)/C1 + CC(=O)c1c(C)c2cnc(Nc3ccc(N4CCNCC4)cn3)nc2n(C2CCCC2)c1=O [Palbociclib] (partner 0.5 µM)
An outline of the steps:
(§1)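 The day after seeding in 1536-well plates, lung cancer cell lines were treated by pin tool with a single drug, or with a fixed anchor-drug dose together with five library-drug doses (not always all listed) in √10 steps. After 5 days, a combined fix-and-stain solution (final 0.05% Triton X-100, 1% formaldehyde, 1 ug/ml Hoechst) was added. Nuclei counted on 4× images gave relative viability as treated counts over vehicle counts, reported as the median of duplicate plates.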

Compound in assay [2]: C1/C(=C\C2=CC=CS2)/C(=O)/C(=C/C3=CC=CS3)/C1 + CC(C)C[C@H](NC(=O)[C@H](Cc1ccccc1)NC(=O)c1cnccn1)B(O)O [Bortezomib] (partner 0.002 µM)
An outline of the steps:
as §1

Compound in the assay “TPCA-1 + Linsitinib”: C1=CC(=CC=C1C2=CC(=C(S2)NC(=O)N)C(=O)N)F [TPCA-1] + C[C@]1(O)C[C@@H](c2nc(-c3ccc4ccc(-c5ccccc5)nc4c3)c3c(N)nccn32)C1 [Linsitinib] (partner 1 µM)
The procedure, abridged:
as §1

Compound in the assay “Lestaurtinib + OSI-027”: C[C@]12O[C@H](C[C@]1(O)CO)n1c3ccccc3c3c4c(c5c6ccccc6n2c5c31)CNC4=O [Lestaurtinib] + COc1cccc2cc(-c3nc([C@H]4CC[C@H](C(=O)O)CC4)n4ncnc(N)c34)[nH]c12 [OSI-027] (partner 0.5 µM)
An outline of the steps:
as §1

With NCI-H2405, the relative viability in assay [1] (first compound 0.2 µM) amounted to 0.555; in assay [1] (first compound 0.6325 µM) it was 0.509; in assay [1] (first compound 2 µM), 0.575; in assay [1] (first compound 6.325 µM), 0.52; in assay [1] (first compound 20 µM) it was 0.504; in assay [2] (first compound 0.2 µM) it was 1.03. Further, the relative viability in assay [2] (first compound 0.6325 µM) was 0.944; in assay [2] (first compound 2 µM), 1.01; in assay [2] (first compound 6.325 µM) it was 0.631; in assay [2] (first compound 20 µM) it was 1; in the assay with TPCA-1 + Linsitinib (first compound 0.04 µM), 1.05; in the assay with TPCA-1 + Linsitinib (first compound 0.1265 µM) it was 0.806. The relative viability with TPCA-1 + Linsitinib (first compound 0.4 µM) worked out at 0.988; with TPCA-1 + Linsitinib (first compound 4 µM), 0.914; with Lestaurtinib + OSI-027 (first compound 0.005 µM), 0.647; in the assay with Lestaurtinib + OSI-027 (first compound 0.01581 µM) it was 0.685; in the assay with Lestaurtinib + OSI-027 (first compound 0.05 µM), 0.59; with Lestaurtinib + OSI-027 (first compound 0.1581 µM) it was 0.487. For the same cell line, the relative viability with Lestaurtinib + OSI-027 (first compound 0.5 µM) amounted to 0.414.

NCI-H3122: the relative viability in assay [1] (first compound 0.2 µM) is 0.178; in assay [1] (first compound 0.6325 µM), 0.175; in assay [1] (first compound 2 µM) it was 0.172; in assay [1] (first compound 6.325 µM), 0.201; in assay [1] (first compound 20 µM), 0.171; in assay [2] (first compound 0.2 µM) it was 1.04. The relative viability came to 1.02 in assay [2] (first compound 0.6325 µM); 0.997 in assay [2] (first compound 2 µM); 1.03 in assay [2] (first compound 6.325 µM); 0.932 in assay [2] (first compound 20 µM); 1.11 with TPCA-1 + Linsitinib (first compound 0.04 µM); 0.983 with TPCA-1 + Linsitinib (first compound 0.1265 µM). The relative viability in the assay with TPCA-1 + Linsitinib (first compound 0.4 µM) turned out to be 0.981; with TPCA-1 + Linsitinib (first compound 1.265 µM) it was 0.985; in the assay with TPCA-1 + Linsitinib (first compound 4 µM) it was 1.02; with Lestaurtinib + OSI-027 (first compound 0.005 µM), 1.36; in the assay with Lestaurtinib + OSI-027 (first compound 0.01581 µM), 1.4; in the assay with Lestaurtinib + OSI-027 (first compound 0.05 µM), 0.99. Also, the relative viability with Lestaurtinib + OSI-027 (first compound 0.1581 µM) amounted to 0.875; with Lestaurtinib + OSI-027 (first compound 0.5 µM), 0.339.

For the cell line PC-3 [JPC-3], the relative viability worked out at 0.587 in assay [1] (first compound 0.6325 µM); 0.5 in assay [1] (first compound 2 µM); 0.43 in assay [1] (first compound 6.325 µM); 0.523 in assay [1] (first compound 20 µM); 0.845 in assay [2] (first compound 0.2 µM); 0.956 in assay [2] (first compound 0.6325 µM). Also, the relative viability in assay [2] (first compound 2 µM) amounted to 0.88; in assay [2] (first compound 6.325 µM) it was 0.76; in assay [2] (first compound 20 µM) it was 0.884; with TPCA-1 + Linsitinib (first compound 0.04 µM), 0.968; with TPCA-1 + Linsitinib (first compound 0.1265 µM), 0.875; with TPCA-1 + Linsitinib (first compound 0.4 µM), 0.946. Besides, the relative viability with TPCA-1 + Linsitinib (first compound 1.265 µM) is 0.9; with TPCA-1 + Linsitinib (first compound 4 µM) it was 0.937; with Lestaurtinib + OSI-027 (first compound 0.005 µM) it was 0.809; in the assay with Lestaurtinib + OSI-027 (first compound 0.01581 µM) it was 0.803; with Lestaurtinib + OSI-027 (first compound 0.05 µM) it was 0.662; in the assay with Lestaurtinib + OSI-027 (first compound 0.1581 µM) it was 0.65. Besides, in the assay with Lestaurtinib + OSI-027 (first compound 0.5 µM), the relative viability turned out to be 0.439.

For PC-14, the relative viability in assay [1] (first compound 0.2 µM) is 0.668; in assay [1] (first compound 0.6325 µM), 0.563; in assay [1] (first compound 2 µM) it was 0.523; in assay [1] (first compound 6.325 µM), 0.435; in assay [1] (first compound 20 µM), 0.501; in assay [2] (first compound 0.2 µM) it was 0.904. Besides, the relative viability came out at 0.763 in assay [2] (first compound 0.6325 µM); 0.837 in assay [2] (first compound 2 µM); 0.742 in assay [2] (first compound 6.325 µM); 0.98 in assay [2] (first compound 20 µM); 0.939 with TPCA-1 + Linsitinib (first compound 0.04 µM); 0.978 with TPCA-1 + Linsitinib (first compound 0.1265 µM). Besides, the relative viability in the assay with TPCA-1 + Linsitinib (first compound 0.4 µM) was 0.926; in the assay with TPCA-1 + Linsitinib (first compound 1.265 µM), 0.966; with TPCA-1 + Linsitinib (first compound 4 µM), 0.692; in the assay with Lestaurtinib + OSI-027 (first compound 0.005 µM) it was 0.805; with Lestaurtinib + OSI-027 (first compound 0.01581 µM), 0.592; with Lestaurtinib + OSI-027 (first compound 0.05 µM), 0.609. Also, the values for the relative viability in the assay with Lestaurtinib + OSI-027 (first compound 0.1581 µM) and with Lestaurtinib + OSI-027 (first compound 0.5 µM) were 0.623 and 0.116, respectively.

With RERF-LC-KJ, the relative viability in assay [1] (first compound 0.2 µM) is 1.04; in assay [1] (first compound 0.6325 µM), 1.2; in assay [1] (first compound 2 µM), 1.05; in assay [1] (first compound 6.325 µM), 0.965; in assay [1] (first compound 20 µM) it was 0.852; in assay [2] (first compound 0.2 µM), 1.07. Besides, the relative viability in assay [2] (first compound 0.6325 µM) is 1.14; in assay [2] (first compound 2 µM), 1.04; in assay [2] (first compound 6.325 µM), 0.912; in assay [2] (first compound 20 µM) it was 1.13; with TPCA-1 + Linsitinib (first compound 0.04 µM), 1.02; in the assay with TPCA-1 + Linsitinib (first compound 0.1265 µM), 0.82. For the same cell line, the relative viability with TPCA-1 + Linsitinib (first compound 0.4 µM) was 0.857; with TPCA-1 + Linsitinib (first compound 1.265 µM), 0.896; with TPCA-1 + Linsitinib (first compound 4 µM) it was 0.905; with Lestaurtinib + OSI-027 (first compound 0.005 µM), 0.525; with Lestaurtinib + OSI-027 (first compound 0.01581 µM), 0.577; with Lestaurtinib + OSI-027 (first compound 0.05 µM) it was 0.491. Moreover, the relative viability with Lestaurtinib + OSI-027 (first compound 0.1581 µM) is 0.461; with Lestaurtinib + OSI-027 (first compound 0.5 µM), 0.315.

Turning to SK-LU-1, the relative viability in assay [1] (first compound 0.2 µM) was determined as 0.39; in assay [1] (first compound 0.6325 µM), 0.443; in assay [1] (first compound 2 µM) it was 0.427; in assay [1] (first compound 6.325 µM), 0.357; in assay [1] (first compound 20 µM), 0.399; in assay [2] (first compound 0.2 µM) it was 1.33. The relative viability stood at 1.07 in assay [2] (first compound 0.6325 µM); 1.68 in assay [2] (first compound 2 µM); 1.13 in assay [2] (first compound 6.325 µM); 1.28 in assay [2] (first compound 20 µM); 1.19 with TPCA-1 + Linsitinib (first compound 0.04 µM); 1.07 with TPCA-1 + Linsitinib (first compound 0.1265 µM). The relative viability in the assay with TPCA-1 + Linsitinib (first compound 0.4 µM) is 1.11; with TPCA-1 + Linsitinib (first compound 1.265 µM) it was 0.681; with TPCA-1 + Linsitinib (first compound 4 µM) it was 0.425; in the assay with Lestaurtinib + OSI-027 (first compound 0.005 µM), 0.296; with Lestaurtinib + OSI-027 (first compound 0.01581 µM) it was 0.255; with Lestaurtinib + OSI-027 (first compound 0.05 µM), 0.211. Also, the relative viability is 0.295 in the assay with Lestaurtinib + OSI-027 (first compound 0.1581 µM) and 0.181 with Lestaurtinib + OSI-027 (first compound 0.5 µM).

With SW 1573, the relative viability came out at 0.444 in assay [1] (first compound 0.2 µM); 0.459 in assay [1] (first compound 0.6325 µM); 0.516 in assay [1] (first compound 2 µM); 0.366 in assay [1] (first compound 6.325 µM); 0.347 in assay [1] (first compound 20 µM); 0.985 in assay [2] (first compound 0.2 µM). The relative viability in assay [2] (first compound 0.6325 µM) was 1; in assay [2] (first compound 2 µM), 1.09; in assay [2] (first compound 6.325 µM), 0.834; in assay [2] (first compound 20 µM) it was 0.949; with TPCA-1 + Linsitinib (first compound 0.04 µM), 1.03; with TPCA-1 + Linsitinib (first compound 0.1265 µM) it was 0.881. Further, the relative viability worked out at 0.807 with TPCA-1 + Linsitinib (first compound 0.4 µM); 0.802 with TPCA-1 + Linsitinib (first compound 1.265 µM); 0.643 in the assay with TPCA-1 + Linsitinib (first compound 4 µM); 0.67 with Lestaurtinib + OSI-027 (first compound 0.005 µM); 0.561 with Lestaurtinib + OSI-027 (first compound 0.01581 µM); 0.482 with Lestaurtinib + OSI-027 (first compound 0.05 µM). Also, the relative viability in the assay with Lestaurtinib + OSI-027 (first compound 0.1581 µM) stood at 0.449; in the assay with Lestaurtinib + OSI-027 (first compound 0.5 µM), 0.131.
